{"source": "patent US20260308158A1", "about": "“TARGETING RNAS ASSOCIATED WITH TAUOPATHIES WITH SMALL MOLECULES” (University of Florida Research Foundation, Incorporated, priority 2023, published 2026)", "key": {"[1]": {"tested_on": "DDPAC I17T MAPT exon 10 mini-gene luciferase reporter", "experiment": "Luciferase reporter assay, DDPAC I17T mutant mini-gene in HeLa cells", "type": "cell-based", "settings": "Homo sapiens, 48 h, 5 μM (highest dose), read-out: reduction of luciferase activity", "description": "Luciferase-reporter Assay to Study Exon 10 Alternative Splicing. The exon 10 mini-genes, both WT and DDPAC and mutant thereof, fused to firefly luciferase, have been previously described.^18 HeLa cells were seeded in 60 mm diameter dishes and incubated for 12-16 h to 70% confluency. They were then transfected with WT, WT+I17T, DDPAC, or DDPAC+I17T luciferase reporter minigenes using JetPrime (Polyplus Transfection) per the manufacturer's recommended protocol and incubated for 4 h. After transfection, the cells were collected by trypsinization and re-seeded in 96-well plates at 0.2×10^5 cells per well, followed by treatment of compounds after 4 h. Compound stocks prepared in DMSO were diluted in growth medium and added to cells with final DMSO concentration at 0.1% (v/v). After a 48 h treatment period, the cells were washed with 1× DPBS. Each well was added with a mixture of 10 μL WST-1 reagent and 90 μL of growth medium. After incubation at 37° C. for 45 min, absorbance was measured at 450 and 690 nm. A690 as background was subtracted from A450 to obtain A450′. […] The plate was incubated at room temperature for 20 min and the luminescence was measured with a […] plate reader (1000 ms integration time). The resulted luminescence was normalized to A450′."}, "[2]": {"tested_on": "WT MAPT mini-gene pre-mRNA", "experiment": "Chem-CLIP / C-Chem-CLIP in HeLa cells transfected with WT mini-gene", "type": "cell-based", "settings": "HeLa, WT mini-gene", "description": "(§1) Measuring Cellular Occupancy by Chem-CLIP and C-Chem-CLIP. LAN5 cells were grown to ~80% confluency in 100 mm diameter dishes. HeLa cells were transfected as described in the Luciferase Reporter Assay to Study Exon 10 Alternative Splicing except they were re-plated in 100 mm diameter dishes and grown to ~80% confluency (~1 day). The cells were then treated with 1.5 μM of 3 or 4 for 12 h. For C-Chem-CLIP, dilutions of competing compounds 1 or 2 were pre-incubated with cells for 12 h prior to adding 3. After addition of 3, the cells were incubated for an additional 12 h. After the treatment period, whether for Chem-CLIP or C-Chem-CLIP studies, the cells were washed with 10 mL of 1×DPBS. Ice-cold 1×DPBS (10 mL) was then added to the plate followed by irradiation with 365 nm light in a UV Stratalinker 2400 (Stratagene). Cells were scraped with a cell scraper, transferred to a 15 mL conical vial, and collected by centrifugation. Total RNA was extracted using TRIzol LS Reagent (Invitrogen) per the manufacturer's protocol. […]\n(§2) RT-qPCR was performed on RNA samples before and after pull-down as described in Real-Time Quantitative PCR to enable calculation of fold enrichment in the pulled down samples. Relative fold enrichment of tau pre-mRNA was measured using Equation 3: […]"}, "[3]": {"tested_on": "endogenous MAPT pre-mRNA in LAN5 cells", "experiment": "Chem-CLIP / C-Chem-CLIP in LAN5 cells", "type": "cell-based", "settings": "pre-incubation", "description": "as §1, §2"}, "DDPAC I17T model RNA": {"tested_on": "DDPAC I17T model RNA", "experiment": "Optical melting, DDPAC I17T RNA", "type": "binding", "settings": "2 at 1.5 μM", "description": "Optical Melting Experiments. The thermal stabilities of WT, DDPAC, and DDPAC+I17T model RNAs were analyzed by optical melting in the presence or absence of compound 1 or 2 as previously described.^18 The RNAs (2 μM) were heated to 95° C. in 1×PBS buffer and slowly cooled to room temperature. The samples were then cooled to 15° C. in the presence of compound 1 (10 μM; 0.1% (v/v) DMSO), 2 (1.5 μM; 0.1% (v/v) DMSO) or vehicle (0.1% (v/v) DMSO) and then heated to 85° C. at a rate of 1° C. per min. Absorbance as a function of temperature was measured at 260 nm using a Beckman Coulter DU800 UV/vis spectrophotometer. Melting curves were fitted with MeltWin 3.5.^31"}, "HeLa cells": {"tested_on": "HeLa cells", "experiment": "Cell viability (WST-1), untransfected HeLa cells", "type": "cell-based", "settings": "up to 12.5 μM, 48 h", "description": "(§3) Cell Viability. Cells were treated with DMSO (vehicle) or compound 2 for 48 h at 37° C. After the removal of the DMSO or compound-containing growth medium, the cells were washed with 1×DPBS and incubated in growth medium containing 10% (v/v) WST-1 cell proliferation reagent (Roche) or CellTiter Fluor (Promega; per the manufacturer's recommend protocol) for 40 min. The absorbance of the solution was measured at 450 and 650 nm with a SpectraMax M5 plate reader (Molecular Devices) for cells treated with WST-1. The background signal at 650 nm was subtracted from the WST-1 signal at 450 nm for analysis. For cells treated with CellTiter Fluor, the fluorescence was measured with 390 nm excitation and 505 nm emission wavelengths. Cells treated with a compound were compared to vehicle treated cells to determine the effect of the compound on cell viability."}, "[4]": {"experiment": "Cell viability (WST-1), untransfected HeLa cells", "type": "cell-based", "settings": "human, hela cells, 12.5 μM, WST-1, read-out: reduction of viability of HeLa cells", "description": "as §3"}}, "data": [{"smiles": "COc1cc(N)ncc1CCCN(C)CCCn1cnc2c3ccccc3n(C)c2c1=O", "note": "[Compound 2, 3-(3-((3-(6-amino-4-methoxypyridin-3-yl)propyl)(methyl)amino)propyl)-5-methyl-3,5-dihydro-4H-pyrimido[5,4-b]indol-4-one]", "values": [{"measurement": "inhibition at 5 µM", "setting": "[1]", "result": "~15", "unit": "%"}, {"measurement": "competition of the interaction of 3 with reporter", "setting": "[2]", "result": "competed dose dependently"}, {"measurement": "competition of cross-linking of 3", "setting": "[3]", "result": "competed by 1 or 2 in dose dependent fashion"}, {"measurement": "effect on Tm", "setting": "DDPAC I17T model RNA", "result": "no effect on the Tm"}, {"measurement": "effect on viability of HeLa cells", "setting": "HeLa cells", "result": "No effect on the viability"}, {"measurement": "cytotoxicity at 48 h, 12.5 µM", "setting": "[4]", "result": "17 ± 3", "unit": "%"}]}]}
